melting point [°C] | SMILES
272 to 273 | CC(=O)NCCNC(=O)c1[nH]c(C)c(-c2nc3ccc(C(=O)c4ccccc4)cc3[nH]2)c1C
174 | CCC1(CC)NS(=O)(=O)c2ccccc21
185 to 190 | COc1ccc(CNC(=S)NNC(=O)C(N)=O)cc1
148 to 149 | O=C(NCCO[N+](=O)[O-])c1cnc(-c2ccccc2)s1
242 to 250 | NS(=O)(=O)c1ccc(-c2c(-c3cccc(F)c3)noc2CC(=O)O)cc1
145 to 149 | CC(=O)C1=CCC2C3CCC4CC5OC5CC4(C)C3CCC12C (stereo unspecified)
213 | O=C(CC1CCOCC1)N[C@H]1CC[C@H](CCN2CCN(c3nccc4ccoc34)CC2)CC1
189 to 190 | CCOCc1nc2c(Cl)nc3ccccc3c2n1Cc1cc(-c2ccc(F)cc2)no1
164 to 165 | Nc1ccc(C#Cc2nc(F)c(F)c(F)c2F)c(C#Cc2nc(F)c(F)c(F)c2F)c1
122 to 124 | Cc1ccc(S(=O)(=O)Nc2ccc(SC#N)cc2)cc1
181 to 182 | O=C1c2cccc(NCCc3ccc(O)cc3)c2C(=O)c2c(NCCc3ccc(O)cc3)cccc21
96 to 97 | CC(=O)OC1CSC(Oc2cc(-c3cncnc3)cnc2F)C(OC(C)=O)C1OC(C)=O (stereo unspecified)
120 to 121 | Cc1ccc(C(=O)Nc2ccc(CN3CCN(C)CC3)c(C(F)(F)F)c2)cc1C#Cc1ccc(NC2CCC2)nn1
82 | O=C(O)CCNc1ccc(CNC(=O)C2Cc3ccccc3N2S(=O)(=O)c2ccc(-c3cccc(C(F)(F)F)c3)cc2)cc1 (stereo unspecified)
45 to 47 | C=CC(=O)NCCCCCCCCOc1ccccc1
74 to 76 | CCCCc1ccc(-c2ccccc2)c(C(=O)O)c1
212 to 215 | Nc1nc(=O)n(C(=O)OCc2ccccc2)cc1F
163 to 165 | Fc1ccc(CN2CCC(Nc3ccc(C(F)(F)F)nn3)CC2)cc1
182 | COc1cc(N)c(Cl)cc1C(=O)Nc1cc(OC)c(C(=O)N[C@H]2CCN(CCCOc3ccc(F)cc3)C[C@H]2OC)cc1Cl (relative stereo)
186 to 189 | CC(C(N)=O)C(O)(Cn1cncn1)c1ccc(Cl)cc1 (stereo unspecified)
116 to 118 | FC(F)(F)c1cccc(-c2nc(-c3ccccn3)no2)c1
206 to 208 | CCn1c(C)c(C2(c3c(-c4ccccc4)c(-c4ccccc4)c4ccccn34)OC(=O)c3cccnc32)c2ccccc21 (stereo unspecified)
> 300 | CCn1c(=O)c(=O)[nH]c2cccc(C)c21

melting point [°C] | SMILES
229 to 231 | O=C1NC(=O)c2c1c(-c1ccccc1Cl)cc1c2c2cc(O)ccc2n1CCCSc1ccccc1
241 | O=C(Nc1nc(C(F)(F)F)co1)C1c2ccccc2Oc2ccc(F)cc21 (racemic)
190 to 192 | Cc1nc(Cl)c2c(n1)CN=C(c1ccccc1)c1cc(Cl)ccc1-2
119 | CCCOc1nc(-c2ccco2)c2ncn(Cc3ccc(OC)cc3)c2n1
34 | Cc1cc(C)c2c(c1Br)CC=C2
277 | COc1ccc(N2CCN(c3ccc(Nc4nnc(C)s4)cc3)CC2)cc1
203 to 207 | COCCNC(=O)c1cc(C(=O)O)cc([N+](=O)[O-])c1
281 | N#CC=Cc1ccc(C(=O)O)cc1
272 | Cc1cc(-c2cc(C(F)(F)F)n3ncc(-c4nc(-c5cnc(N)nc5)no4)c3n2)ccc1Cl
174 to 176 | Cc1c(Cl)cc(C(C)(C)C)c(O)c1-c1nc2cc(S(=O)(=O)C(F)(F)F)ccc2[nH]1
157 to 158 | CCC1C(=O)N(CC)CCc2c1ccc(Nc1ncc(Cl)c(Nc3ccccc3C(=O)NC)n1)c2OC (stereo unspecified)
96 | O=C(c1ccc(F)cc1)c1ccc(SCc2ccccc2)cc1
175 to 177 | CC(=O)OCCOc1ccc(C=Cc2ccc(S(C)(=O)=O)cc2)cc1
94 to 98 | Clc1cc(NC2CCCC2)nc(NC2CCCC2)n1
229 to 230 | CC(C)(CO)c1ccc2c(c1)OC(C(F)(F)F)C(C(=O)O)=C2 (stereo unspecified)
181 to 183 | COC[C@H]1CCCN1NC(=O)Nc1cccc2c1C(=O)c1c-2n[nH]c1-c1ccc(C(=O)N2CCN(C)CC2)s1
137 to 138 | Cn1ncc(CC(=O)O)c1OCCCc1cn(-c2ccc(C(F)(F)F)cn2)nc1C1CCCCC1
170 to 172 | C#CCOc1ccc2c(c1)c(-c1ccc(C(C)C)cc1)nc(=O)n2Cc1cccc(NC(=O)CCl)c1
108 to 110 | Cc1cc(Cl)n2nc(SCc3ccccc3)nc2c1
216 to 218 | O=[N+]([O-])c1ccc(Oc2ccc(C3(c4ccc(Oc5ccc([N+](=O)[O-])cc5)cc4)CCC(c4ccccc4)CC3)cc2)cc1
105 to 107 | Cn1c(=O)n(CCCCI)c(=O)c2ccccc21
105 to 106 | CCCCCCCCCCCCCC(CP(c1ccccc1)c1ccccc1)C(C)CP(c1ccccc1)c1ccccc1 (stereo unspecified)
168 to 170 | O=c1cc(-c2cc(OCc3ccccc3)cc(OCc3ccccc3)c2)oc2cc(OCC(O)CN3CCN(c4ccccc4)CC3)ccc12 (stereo unspecified)

melting point [°C] | SMILES
127 to 128 | COc1cc(CN2CCc3cc(O)c(OC)cc3C2)cc(OC)c1
182 to 186 | CC(=O)OC1(O)C(C(C)(C)C)=CC(C(=O)c2ccccc2O)=CC1C(C)(C)C (stereo unspecified)
217 to 219 | CC1=C(C(=O)Nc2cc(Cl)ccc2Cl)SC2=NCCN21
168 | CN(C)CC#Cc1cnc2c(c1)N(Cc1cc(Cl)ccc1Cl)CCN2
189 to 190 | Oc1csc(Cc2n[nH]c3ccccc23)c1
128 to 130 | CC(C)(CO)Nc1nc(-c2ccc(C#N)c(F)c2)cs1
190 to 200 | CC(=O)N(C)c1c(N(C)C)cc(CC(C#N)=CNc2ccccc2)cc1N(C)C
277 to 278 | COc1cc(C(=O)O)cc(OC)c1-c1ccc(C[C@H](NC(=O)c2c(Cl)cccc2Cl)C(=O)O)cc1
234 to 237 | CC(=O)OCC1CCn2c(c(C3=C(c4coc5ccccc45)C(=O)NC3=O)c3ccccc32)C1 (stereo unspecified)
66 to 68 | CCOC(=O)c1cc(CC)sc1Nc1ccccc1[N+](=O)[O-]
111 to 114 | CN1CCC(c2c[nH]c3ccc(NC(=O)c4ccccc4)nc23)CC1
233 to 234 | CC(C)(CCC#N)c1ccc(C(=O)Nc2cn3cc(-n4ccnc4)ccc3n2)cc1
171 to 173 | CS(=O)c1cc(C(C)(C)C)c(O)c(C(C)(C)C)c1 (stereo unspecified)
96 to 97 | O=C(NCCSCc1ccccc1)c1c(Cl)cccc1Cl
166 to 167 | CC(C)CNC(=O)C=Cc1ccc(OCc2ccccc2)c([N+](=O)[O-])c1
192 to 193 | COc1ccc(C2c3ccccc3C(c3ccc(OC)cc3)C2C(=O)O)cc1 (stereo unspecified)
67 | O=[N+]([O-])c1cccc2c1C1OC1CC2 (stereo unspecified)
86.5 to 88 | CCOC(=O)C=Cc1cnc2ccccc2c1
112 to 114 | COc1c(-c2ccc(S(C)(=O)=O)cc2)cnn(-c2cccc(Cl)c2)c1=O
124 to 126 | CCN(CC)c1nc(NCCCCO)nc(Nc2ccc3cc(-c4ccccc4)c(=O)oc3c2)n1
64 to 65 | CCC(O)(C#CC(O)c1ccc(SC)cc1)CC (stereo unspecified)
133 to 135 | CCc1ccc(Nc2nnc(Cc3ccnc(OC)c3)c3ccccc23)cc1Br
145 to 147 | O=C1C2CCCC2=Nc2ccccc2N1Cc1cccc2ccccc12 (stereo unspecified)

melting point [°C] | SMILES
133 to 135 | CC1=C(c2ccc(C(=O)N3Cc4cccn4Cc4ccccc43)cc2C)C(C)CCC1 (stereo unspecified)
123 to 125 | CS(=O)(=O)Nc1cccc(SCc2ccccc2)n1
144 to 146 | CCC(C)(c1ccc(O)c(C)c1)c1ccc(O)c(C)c1
151 to 154 | CC(C)(C)OC(=O)N1CCC2(CC1)CC(=O)N(O)C2=O
182 to 185 | NC(=O)N(O)CCNC(=O)c1ccccc1Oc1ccccc1
161 to 162 | Oc1cc2cc(-c3c(F)cccc3F)sc2c(Cl)c1Cl
236 to 237 | CS(=O)c1ccc(-c2nn(Cc3ccc(Cl)cc3Cl)c(=O)cc2-c2ccc(Cl)cc2)cc1 (stereo unspecified)
319 | O=C(Nc1ccc2ccc(Cl)nc2n1)c1ccccn1
206 to 207 | CCn1nnnc1Cc1ccc(NC(=O)/C=C/c2cnn(C)c2-c2ccc(F)cc2)cc1
55 to 57 | O=C(Cl)C12CC(C(=O)Cl)(C1)C2
158 to 160 | Brc1ccc(C2CC(n3cncn3)c3ccccc3N2)cc1 (stereo unspecified)
68 to 70 | COC(=O)c1ccc(N2C(=O)CCC2CN=[N+]=[N-])c([N+](=O)[O-])c1 (stereo unspecified)
163 to 165 | CC(=O)N1CCC(O)(Cn2nc(-c3c(-c4ccccc4)nn4ccccc34)ccc2=O)CC1
232 to 234 | O=c1c(Cc2ccncc2)c(-c2ccc(Br)cc2)[nH]c2ccccc12
140 to 141 | CCCn1c(=O)c(/C=C/C(=O)OCC)c2n(c1=O)CCS2
172 to 174 | Cc1c(NC(=O)c2ccc(-c3ccc(F)cc3)cc2)ccc2cc(CN3CCCC3Cc3ccccc3)cnc12 (stereo unspecified)
178 to 200 | CC(C)C1(C)C(=O)NC2c3ccccc3C(=O)N21 (stereo unspecified)
71 to 73 | CCc1cccc(CC)c1NCC(=O)NN
121 | CCOC(=O)C1=C(N)N=C(OCC)C(C(=O)OCC)C1c1cccc(Cl)c1 (stereo unspecified)
95 to 96 | CS(=O)(=O)c1cccnc1Oc1ccc(Cl)c(Cl)c1
96 to 98 | COc1cccc(-c2cc(C(C)(C)C)c(O)c(C(C)(C)C)c2)c1

SMILES | melting point [°C]
COC(=O)c1cncn1C1CCCc2ccccc21 (stereo unspecified) | 63
COc1cc(C)c(CNCCc2ccc(O)cc2)cc1O | 122 to 124
Cc1ccccc1C(=O)P(=O)(c1ccccc1)c1ccccc1 | 107
COc1cc2c(cc1OC)[C@@H](O)[C@H](CN1CCC3(CC1)C(=O)NCN3c1ccccc1)C2 (relative stereo) | 189 to 190
COc1ccc2c(c1)C13CCCOC1(C)C(C2)N(C#N)CC3 (stereo unspecified) | 157 to 158
Cc1cccc(NC(=O)NCC(=O)N(CC(=O)N2CCC3(CC2)OCCO3)c2ccccc2)c1 | 130
